Test results from patent publication US12174198B2, “Methods of characterizing condensate-associated characteristics of compounds and uses thereof” (Dewpoint Therapeutics, Inc., priority 2019, dated 2024).

Assays:
Assay type in all cases: physicochemical
[1] = target: T1, FUS-SNAP condensates (Homo sapiens, UniProt P35637); experiment: Fluorescence imaging of dye partitioning in FUS-SNAP condensates (I-in, I-out); conditions: for Ratio of intensity inside:outside FUS-SNAP Condensates Day 1 / Ratio of intensity inside:outside FUS-SNAP Condensates Day 2 / Ratio of intensity inside:outside FUS-SNAP Condensates Average: I-in:I-out; for Ratio of intensity inside:outside FUS-SNAP Condensates Day 1 / Ratio of intensity inside:outside FUS-SNAP Condensates Day 2 / Ratio of intensity inside:outside FUS-SNAP Condensates Average / Intensity Inside with Dye Average / Intensity Inside with Dye 1 / Intensity Inside with Dye 2 / Intensity Inside with Dye 3 / Intensity Outside with Dye Average / Intensity Outside with Dye 1 / Intensity Outside with Dye 2 / Intensity Outside with Dye 3: 10 μM dye; for Ratio of intensity inside:outside FUS-SNAP Condensates Average: average of two days; for Intensity Inside with Dye Average / Intensity Inside with Dye 1 / Intensity Inside with Dye 2 / Intensity Inside with Dye 3 / Intensity Inside Dye-No Dye: inside FUS-SNAP condensate; for Intensity Inside with Dye Average / Intensity Inside with Dye 1 / Intensity Inside with Dye 2 / Intensity Inside with Dye 3 / Intensity Outside with Dye Average / Intensity Outside with Dye 1 / Intensity Outside with Dye 2 / Intensity Outside with Dye 3: 5 μM protein; for Intensity Inside with Dye Average / Intensity Outside with Dye Average: average of three images; for Intensity Inside with Dye Average / Intensity Inside with Dye 1 / Intensity Inside with Dye 2 / Intensity Inside with Dye 3 / Intensity Inside Dye-No Dye / Intensity Outside with Dye Average / Intensity Outside with Dye 1 / Intensity Outside with Dye 2 / Intensity Outside with Dye 3 / Intensity Outside (Dye-No Dye): one day of experiments; for Intensity Inside with Dye 1 / Intensity Outside with Dye 1: image 1; for Intensity Inside with Dye 2 / Intensity Outside with Dye 2: image 2; for Intensity Inside with Dye 3 / Intensity Outside with Dye 3: image 3; for Intensity Inside Dye-No Dye / Intensity Outside (Dye-No Dye): background corrected; for Intensity Outside with Dye Average / Intensity Outside with Dye 1 / Intensity Outside with Dye 2 / Intensity Outside with Dye 3 / Intensity Outside (Dye-No Dye): outside FUS-SNAP condensate
T1 sequence (P35637 1-526): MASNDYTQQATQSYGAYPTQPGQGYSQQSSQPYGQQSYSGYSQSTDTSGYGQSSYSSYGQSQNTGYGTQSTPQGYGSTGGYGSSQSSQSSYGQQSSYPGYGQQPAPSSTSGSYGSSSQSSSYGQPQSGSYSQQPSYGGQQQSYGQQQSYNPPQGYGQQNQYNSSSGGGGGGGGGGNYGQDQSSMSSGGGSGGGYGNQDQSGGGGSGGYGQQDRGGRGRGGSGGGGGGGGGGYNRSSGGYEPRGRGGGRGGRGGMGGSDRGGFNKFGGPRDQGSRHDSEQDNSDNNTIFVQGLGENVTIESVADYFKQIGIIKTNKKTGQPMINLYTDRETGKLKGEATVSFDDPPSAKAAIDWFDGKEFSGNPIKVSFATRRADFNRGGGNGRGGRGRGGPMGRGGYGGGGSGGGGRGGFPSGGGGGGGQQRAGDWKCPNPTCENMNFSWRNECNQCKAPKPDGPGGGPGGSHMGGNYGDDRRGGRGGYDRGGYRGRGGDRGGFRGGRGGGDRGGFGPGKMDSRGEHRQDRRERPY
Protocol: (§1) All dye-stocks were stored as 1 mM solutions in 100% DMSO. The dyes were dissolved in dilution buffer (DB: 14.7 mM Tris, pH 7.25, 1 mM DTT) to yield 11.765 μM dye in 1.1765 DMSO. 17 μl of dye was distributed in a 384 well non-binding plate (Greiner).
(§2) Either SNAP-tagged FUS protein or tag-free PGL-3 protein was thawed at room temperature for at least 10 min, and the buffer was exchanged to partitioning buffer (PB: 50 mM Tris pH 7.25, 500 mM KCl, 5% Glycerol, and 1 mM DTT). The protein was then diluted to 33.3 μM in PB. 3 μl of protein solution were added to the 384 well plate to initiate phase separation, yielding 20 μl of 5 μM protein and 10 μM dye in 75 mM KCl, 0.75% Glycerol, 20 mM Tris, 1 mM DTT, and 1% DMSO or for no dye control reactions, 20 μl of 5 μM protein in 75 mM KCl, 0.75% Glycerol, 20 mM Tris, 1 mM DTT.
(§3) A spinning disk confocal microscope was used to acquire images of the samples. A 60×oil high-NA objective lens was used to capture the condensate droplets. The laser power was set to 20% and the exposure times were adjusted to the fluorescence emission intensity specific for each dye. Exposure times ranged from 1-1000 ms. Appropriate filter settings were used, matching the excitation and emission spectra of the respective dyes. Three images per well were taken. The background signal of protein droplets in the absence of dye was recorded for all applied imaging conditions.
(§4) Fluorescence intensity was measured inside one exemplary target condensate (Intensity inside, I-in) per image and in a region next to the exemplary target condensate (Intensity outside, I-out) by hand using the image analysis software Fiji. An example depicting the regions measured is shown FIG. 2A. Three I-in and three I-out values were measured in total for each dye in each experiment and were averaged. The measured I-in and I-out values for FUS-SNAP condensates on one day of experiments are shown in Table 2 and Table 3, respectively. The measured I-in and I-out values for PGL-3 condensates on one day of experiments are shown in Table 4 and Table 5, respectively. All values were background corrected, based on the background images (no dye controls) taken with the same microscope conditions.
(§5) The ratios of the average intensity measured in the target condensates and outside of the target condensates were calculated by dividing I-in by I-out, although dividing I-out by I-in could also have been used. The I-in:I-out ratios determined from the two different days of experiments were then averaged. The average I-in:I-out ratios for FUS-SNAP condensates are shown in FIG. 3 and the average I-in:I-out ratios for PGL-3 condensates are shown in FIG. 4. The standard deviation between the two experiments is represented by the error bars in FIG. 3 and FIG. 4.

[2] = target: T2, PGL-3 condensates (Caenorhabditis elegans, UniProt G5EBV6); experiment: Fluorescence imaging of dye partitioning in PGL-3 condensates (I-in, I-out); conditions: for Ratio of intensity inside:outside PGL-3 Condensates Day 1 / Ratio of intensity inside:outside PGL-3 Condensates Day 2 / Ratio of intensity inside:outside PGL-3 Condensates Average: I-in:I-out; for Ratio of intensity inside:outside PGL-3 Condensates Day 1 / Ratio of intensity inside:outside PGL-3 Condensates Day 2 / Ratio of intensity inside:outside PGL-3 Condensates Average / Intensity Inside with Dye Average / Intensity Inside with Dye 1 / Intensity Inside with Dye 2 / Intensity Inside with Dye 3 / Intensity Outside with Dye Average / Intensity Outside with Dye 1 / Intensity Outside with Dye 2 / Intensity Outside with Dye 3: 10 μM dye; for Ratio of intensity inside:outside PGL-3 Condensates Average: average of two days; for Intensity Inside with Dye Average / Intensity Inside with Dye 1 / Intensity Inside with Dye 2 / Intensity Inside with Dye 3 / Intensity Inside Dye-No Dye: inside PGL-3 condensate; for Intensity Inside with Dye Average / Intensity Inside with Dye 1 / Intensity Inside with Dye 2 / Intensity Inside with Dye 3 / Intensity Outside with Dye Average / Intensity Outside with Dye 1 / Intensity Outside with Dye 2 / Intensity Outside with Dye 3: 5 μM protein; for Intensity Inside with Dye Average / Intensity Outside with Dye Average: average of three images; for Intensity Inside with Dye Average / Intensity Inside with Dye 1 / Intensity Inside with Dye 2 / Intensity Inside with Dye 3 / Intensity Inside Dye-No Dye / Intensity Outside with Dye Average / Intensity Outside with Dye 1 / Intensity Outside with Dye 2 / Intensity Outside with Dye 3 / Intensity Outside (Dye-No Dye): one day of experiments; for Intensity Inside with Dye 1 / Intensity Outside with Dye 1: image 1; for Intensity Inside with Dye 2 / Intensity Outside with Dye 2: image 2; for Intensity Inside with Dye 3 / Intensity Outside with Dye 3: image 3; for Intensity Inside Dye-No Dye / Intensity Outside (Dye-No Dye): background corrected; for Intensity Outside with Dye Average / Intensity Outside with Dye 1 / Intensity Outside with Dye 2 / Intensity Outside with Dye 3 / Intensity Outside (Dye-No Dye): outside PGL-3 condensate
T2 sequence (G5EBV6 1-693): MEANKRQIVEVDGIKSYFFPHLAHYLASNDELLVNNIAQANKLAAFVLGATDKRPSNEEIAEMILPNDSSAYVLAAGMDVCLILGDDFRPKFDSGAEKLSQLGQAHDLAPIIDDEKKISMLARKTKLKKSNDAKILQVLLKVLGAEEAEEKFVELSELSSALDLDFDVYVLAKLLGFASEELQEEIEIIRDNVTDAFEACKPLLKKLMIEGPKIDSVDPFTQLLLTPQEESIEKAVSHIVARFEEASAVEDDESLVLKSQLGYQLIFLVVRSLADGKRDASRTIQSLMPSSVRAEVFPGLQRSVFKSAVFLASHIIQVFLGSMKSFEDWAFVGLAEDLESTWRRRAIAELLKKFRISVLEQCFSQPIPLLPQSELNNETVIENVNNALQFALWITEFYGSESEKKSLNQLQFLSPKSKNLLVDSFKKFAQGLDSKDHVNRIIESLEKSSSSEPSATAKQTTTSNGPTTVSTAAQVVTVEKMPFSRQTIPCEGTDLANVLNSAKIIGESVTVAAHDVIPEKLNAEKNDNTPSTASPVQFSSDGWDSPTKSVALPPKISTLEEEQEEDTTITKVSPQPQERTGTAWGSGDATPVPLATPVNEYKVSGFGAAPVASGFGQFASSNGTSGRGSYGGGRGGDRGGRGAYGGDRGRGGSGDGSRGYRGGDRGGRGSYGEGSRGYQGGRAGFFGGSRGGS
Protocol: as §1, §2, §3, §4, §5

[3] = test system: FUS-SNAP condensates versus PGL-3 condensates; experiment: Condensate preference: ratio of FUS-SNAP I-in:I-out to PGL-3 I-in:I-out; conditions: average FUS-SNAP I-in:I-out divided by average PGL-3 I-in:I-out
Protocol: as §5

## O=c1cc(C(F)(F)F)c2ccc(O)cc2o1 [Dye 2, 7-Hydroxy-4-(trifluoromethyl)-coumarin]
[1]
  Ratio of intensity inside:outside FUS-SNAP Condensates Day 1: 1.4
  Ratio of intensity inside:outside FUS-SNAP Condensates Day 2: 1.2
  Ratio of intensity inside:outside FUS-SNAP Condensates Average: 1.3
  Intensity Inside with Dye Average: 280.9
  Intensity Inside with Dye 1: 278.2
  Intensity Inside with Dye 2: 278.1
  Intensity Inside with Dye 3: 286.5
  Intensity Inside Dye-No Dye: 160.9
  Intensity Outside with Dye Average: 232.0
  Intensity Outside with Dye 1: 235.7
  Intensity Outside with Dye 2: 228.5
  Intensity Outside with Dye 3: 232.0
  Intensity Outside (Dye-No Dye): 112.0
[2]
  Ratio of intensity inside:outside PGL-3 Condensates Day 1: 1.0
  Ratio of intensity inside:outside PGL-3 Condensates Day 2: 1.1
  Ratio of intensity inside:outside PGL-3 Condensates Average: 1.1
  Intensity Inside with Dye Average: 269.8
  Intensity Inside with Dye 1: 273.9
  Intensity Inside with Dye 2: 267.0
  Intensity Inside with Dye 3: 268.3
  Intensity Inside Dye-No Dye: 149.0
  Intensity Outside with Dye Average: 262.4
  Intensity Outside with Dye 1: 263.1
  Intensity Outside with Dye 2: 258.0
  Intensity Outside with Dye 3: 266.0
  Intensity Outside (Dye-No Dye): 141.9
[3]
  Ratio of FUS-SNAP:PGL-3: 1.2

## O=C(O)c1cc2cc3c4c(c2oc1=O)CCCN4CCC3 [Dye 3, Coumarin 343]
[1]
  Ratio of intensity inside:outside FUS-SNAP Condensates Day 1: 2.5
  Ratio of intensity inside:outside FUS-SNAP Condensates Day 2: 2.8
  Ratio of intensity inside:outside FUS-SNAP Condensates Average: 2.7
  Intensity Inside with Dye Average: 3572.7
  Intensity Inside with Dye 1: 3451.6
  Intensity Inside with Dye 2: 3462.2
  Intensity Inside with Dye 3: 3804.4
  Intensity Inside Dye-No Dye: 3452.8
  Intensity Outside with Dye Average: 1498.4
  Intensity Outside with Dye 1: 1486.5
  Intensity Outside with Dye 2: 1529.0
  Intensity Outside with Dye 3: 1479.6
  Intensity Outside (Dye-No Dye): 1378.3
[2]
  Ratio of intensity inside:outside PGL-3 Condensates Day 1: 1.5
  Ratio of intensity inside:outside PGL-3 Condensates Day 2: 1.1
  Ratio of intensity inside:outside PGL-3 Condensates Average: 1.3
  Intensity Inside with Dye Average: 2098.0
  Intensity Inside with Dye 1: 2228.4
  Intensity Inside with Dye 2: 2006.3
  Intensity Inside with Dye 3: 2059.4
  Intensity Inside Dye-No Dye: 1977.3
  Intensity Outside with Dye Average: 1447.1
  Intensity Outside with Dye 1: 1472.5
  Intensity Outside with Dye 2: 1407.6
  Intensity Outside with Dye 3: 1461.1
  Intensity Outside (Dye-No Dye): 1326.6
[3]
  Ratio of FUS-SNAP:PGL-3: 2.0

## 6-[Fluorescein-5(6)-carboxamido]-hexanoic acid [Dye 8]
[1]
  Ratio of intensity inside:outside FUS-SNAP Condensates Day 1: 1.7
  Ratio of intensity inside:outside FUS-SNAP Condensates Day 2: 1.6
  Ratio of intensity inside:outside FUS-SNAP Condensates Average: 1.6
  Intensity Inside with Dye Average: 5354.9
  Intensity Inside with Dye 1: 5285.1
  Intensity Inside with Dye 2: 5631.6
  Intensity Inside with Dye 3: 5148.0
  Intensity Inside Dye-No Dye: 5219.7
  Intensity Outside with Dye Average: 3178.8
  Intensity Outside with Dye 1: 3064.0
  Intensity Outside with Dye 2: 3267.0
  Intensity Outside with Dye 3: 3205.5
  Intensity Outside (Dye-No Dye): 3074.8
[2]
  Ratio of intensity inside:outside PGL-3 Condensates Day 1: 1.0
  Ratio of intensity inside:outside PGL-3 Condensates Day 2: 1.0
  Ratio of intensity inside:outside PGL-3 Condensates Average: 1.0
  Intensity Inside with Dye Average: 3538.6
  Intensity Inside with Dye 1: 3527.5
  Intensity Inside with Dye 2: 3608.1
  Intensity Inside with Dye 3: 3480.3
  Intensity Inside Dye-No Dye: 3392.1
  Intensity Outside with Dye Average: 3496.8
  Intensity Outside with Dye 1: 3491.4
  Intensity Outside with Dye 2: 3551.4
  Intensity Outside with Dye 3: 3447.6
  Intensity Outside (Dye-No Dye): 3391.4
[3]
  Ratio of FUS-SNAP:PGL-3: 1.6
